Experiment [1] deals with de novo hepatic cholesterol synthesis. Briefly: Acute rat cholesterol synthesis assay (de novo hepatic cholesterol synthesis from 14C-acetate). In kind it is in vivo. Particulars: at 50mg/kg; female rats. As to the method:
(b) Acute rat cholesterol synthesis assay.
This is an acute in vivo test in the rat to measure de novo hepatic cholesterol synthesis from exogenously administered ^14C-acetate.
Female rats (35 - 55 g) are housed in reverse lighting conditions (red light from 0200h - 1400h) for a period of about 2 weeks prior to test. Animals are allowed free access to chow and drinking water throughout this period. At test, animals should weigh 125 - 150 g.
Test compounds may be administered by oral gavage, dissolved or suspended in 0.5% polysorbate, or by ip or iv dosing. Control animals receive vehicle alone. After 1 hour the rats are injected ip with 25µCi [2-^14C]-acetate (NEN DUPONT. specific activity, 45-60mCi/mmol NEC-085H, or AMERSHAM specific activity, 50-60mCi/mmol CFA 14) in a volume of 0.25 ml saline (100µCi/ml). After a further hour, rats are terminally anaesthetised with halothane and a blood sample obtained from the abdominal vena cava.
1ml of plasma is lyophilised and then saponified in 2ml ethanolic KOH (1 part 33% KOH, 9 parts ethanol) at 75°C for 2 hours. After addition of an equal quantity of water, non-saponifiable lipids are extracted with two 5ml volumes of hexane. The hexane extracts are evaporated to dryness and the residues dissolved in ethanol to determine cholesterol specific radioactivity. ED50 values can be determined in the standard way.

The target of experiment [2] is T1, Squalene synthase (Rattus norvegicus, UniProt Q02769).
T1 construct: from tissue; host or cells: rat liver microsomes
T1 sequence (Q02769 1-416): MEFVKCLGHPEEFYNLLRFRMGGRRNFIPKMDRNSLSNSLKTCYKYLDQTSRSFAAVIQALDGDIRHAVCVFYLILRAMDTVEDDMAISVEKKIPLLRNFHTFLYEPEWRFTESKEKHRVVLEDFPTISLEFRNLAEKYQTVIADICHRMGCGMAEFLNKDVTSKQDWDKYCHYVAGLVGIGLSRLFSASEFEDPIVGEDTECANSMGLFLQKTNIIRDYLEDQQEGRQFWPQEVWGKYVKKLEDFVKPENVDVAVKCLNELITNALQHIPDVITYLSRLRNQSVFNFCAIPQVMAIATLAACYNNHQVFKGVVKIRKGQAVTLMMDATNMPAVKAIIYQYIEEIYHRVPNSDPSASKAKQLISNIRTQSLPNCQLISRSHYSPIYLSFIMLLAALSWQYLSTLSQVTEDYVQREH
As to the kind of experiment: Inhibition of squalene synthase (formation of squalene from tritiated farnesyl pyrophosphate by rat liver microsomal protein). In kind it is biochemical. The conditions noted are these: substrate 1-[3H]-farnesyl pyrophosphate 20µM. As for the experimental part:
(a) Inhibition of Squalene synthase
In this test, the ability of a compound to prevent the formation of squalene from a radioactive substrate (tritiated farnesyl pyrophosphate) is assessed.
The test compound is incubated at a concentration of 25 micromolar in 200µl of a buffered solution containing potassium phosphate (50mM), MgCl2 (4.95mM), KF (9.9mM), NADPH (0.9mM) and rat liver microsomal protein (20µg). Rat liver microsomes are prepared by the method described in published European Patent Application No. 324,421 and stored in liquid nitrogen prior to assay. Assay vials are kept at 37°C throughout the incubation.
The reaction is started with the addition of the substrate (1-[^3H]-farnesyl pyrophosphate), final concentration 20µM, and stopped after 15 minutes reaction time with the addition of 50µl of 4% KOH. The reaction products are separated from unreacted substrate after application to a C-18 octadecyl lccBond column (Analytichem Int product No. 617101). An aqueous fraction is eluted with 250µl of 0.1M KOH. Squalene is then eluted with 1.0 ml 10% ethylacetate in hexane and radioactivity determined. The difference in radioactivity in the presence and absence of the test compound is used to determine the level of inhibition. […] The IC50 can then be determined from a plot of percentage inhibition against concentration of test compound.
For orientation: Liver microsomes are vesicles of endoplasmic reticulum, rich in cytochrome P450 enzymes.

Usually inhibition stands for how much of the control response was suppressed. Lower therefore signals a weak effect. For `OC1(c2ccc(/C=C/c3cccnc3)cc2)CN2CCC1CC2` (centres unmarked) [Example 2, 3-(4-[(E)-2-(3-pyridyl)vinyl]phenyl)quinuclidin-3-ol], the “reduction in the rate of cholesterol biosynthesis” value in experiment [1] was 72%. Moreover, the inhibition at 2.5 µM in experiment [2] is around 89%.

Values taken from patent publication EP0674636B1, “QUINUCLIDINE DERIVATIVES AS SQUALENE SYNTHASE INHIBITORS” (ZENECA LIMITED, priority 1992, dated 1994).
